One may read the melting point as the temperature of the solid-liquid transition.

`CCCc1c(OCC(O)CSc2ccc(C(=O)CCC(=O)O)c(O)c2)ccc(C(C)=O)c1O` (stereo not given): the melting point amounted to 150 °C.

`COc1ccc(N2N=C3c4cc(C)sc4CCCC3CC2=O)cc1` (stereo not given) returned a melting point of 136 to 138 °C.

`COc1cc(OC)nc(NC(=O)NS(=O)(=O)c2ccccc2-c2ccccn2)n1` yielded a melting point of 175 to 176 °C.

Take `CCOC(=O)C(Cc1ccc(O)cc1)c1cc2cc(C#N)ccc2s1` (stereo not given): the melting point lay within 146 to 147 °C.

Compound `COC(=O)C1=C(COCC(C)n2c(C)nc(C)c2C)Nc2c(c(=O)n(C)c(=O)n2C)C1c1ccccc1Cl` (stereo not given) displayed a melting point of 180 to 182 °C.

Turning to `COc1cnc(-c2cccn3nc(Nc4ccc(C5CCN(C(=O)OC(C)(C)C)CC5)cc4)nc23)cn1`, the melting point lay within 193 to 195 °C.

Regarding `COC(=O)Cc1nc(N)cc(OC)n1`, the melting point lay in the range of 91 to 94 °C.

As to `Cn1cc(Oc2cccc(C(F)(F)F)c2)c(=O)c(-c2cccc(C(F)(F)F)c2)c1`, the melting point fell in the range of 93 to 95 °C.

`CC(C)=CCC/C(C)=C/CSc1nc2ccccc2[nH]1` showed a melting point of 98 to 100 °C.

In turn, `CCOC(=O)c1ccc(-c2cc3c(NCc4ccc(OC)nc4)ncnc3[nH]2)cc1` displayed a melting point of 305 °C.

Compound `COc1ccc(C2(CF)CCC(=O)CC2)cc1OC1CCCC1` showed a melting point of 72 to 74 °C.

Turning to `Cc1cc([N+](=O)[O-])c(C)nc1OC(F)F`, the melting point was in the range of 48 to 49 °C.

`CCCC(=O)c1nc(CCC)[nH]c1C`: the melting point is 94 to 95 °C.

In turn, `O=C(Nc1ccc(Cl)c(C(=O)Nc2ccccc2)c1O)Nc1cccc(Cl)c1Cl` showed a melting point of 244 to 245 °C.

The compound `Cc1cccc(-c2n[nH]cc2-c2ccc(F)c(-c3cnn(CCO)c3)c2)n1` had a melting point of 132 to 135 °C.

The compound `O=C(N1CC(CCl)c2c1ccc1ccc(S(=O)(=O)N(Cc3ccccc3)Cc3ccccc3)cc21)C(F)(F)F` (stereo not given) returned a melting point of 119 to 121 °C.

The compound `O=C(O)c1cc(S(=O)(=O)Oc2ccc(-c3ccc(-c4c(Cc5ccccc5)oc5ccccc45)cc3)cc2)ccc1O` showed a melting point of 171 to 173 °C.

In turn, `c1ccc(COc2ccc(-c3nc(COc4ccc(CCCCn5ccnc5)cc4)co3)cc2)cc1` came in with a melting point of 118 to 120 °C.

Consider `CN(C)c1c(C(=O)c2ccccc2)[nH]c2cc(Cl)ccc12`, for which the melting point was 178 to 180 °C.

`NCCCC(=O)NCCS(=O)(=O)O` gave a melting point of 247 °C.

In turn, `CNCc1nc(-c2ncn3c2[C@@H]2CCN2C(=O)c2cc(F)ccc2-3)no1` yielded a melting point of 155 to 160 °C.

With `Cc1ccc(N)c2c1CCC2=NNC(=N)N`, the melting point was over 250 °C.

`Fc1cc(F)c(-c2c(F)nnc(F)c2-c2ccc(Br)cc2)c(F)c1` yielded a melting point of 132 to 133 °C.

For `COc1ccccc1N1CCN(CCCn2c(=O)[nH]c3ccsc3c2=O)CC1`, the melting point lay within 78 to 84 °C.

`Clc1ccc2c3c(cccc13)C(NCCCn1ccnc1)=N2` came in with a melting point of 177 to 178 °C.

As for `N#Cc1ccccc1OCC(O)CN1CCN(c2ncccc2F)CC1` (stereo not given), the melting point was in the range of 68 to 70 °C.

As to `CSc1ccc(-n2cnc3ccc(-c4nnc(CCc5cccc(C#N)c5)o4)cc32)cc1`, the melting point lay in the range of 185 to 186 °C.

Compound `CCCc1c(OCC2COc3cc(CC(=O)OC)ccc3O2)ccc(C(C)=O)c1O` (stereo not given) registered a melting point of 72 to 75 °C.

`O=c1n(-c2cc(O)c([N+](=O)[O-])cc2F)nc2ccc(Cl)cn12` showed a melting point of 207 to 209 °C.

`O=S(=O)(NC(CO)(CO)CO)c1cncc(C#Cc2cnn3c(C(F)(F)F)cc(-c4ccc(C(F)(F)F)cc4)nc23)c1` displayed a melting point of 230 to 232 °C.

Compound `CCCCCCCCCCCCCCCCCCOc1cccc(CC(=O)OC)c1` yielded a melting point of 43 to 45 °C.

`COc1nc(C)c(C)nc1N(C)C(=O)N1CCN(c2cc(C)cc(C)c2)CC1`: the melting point was in the range of 94 to 96 °C.

`O=C1OC2(CCN(C(=O)Nc3cnc(-c4ccccc4)cn3)CC2)c2cc(O)ccc21`: the melting point is 206 to 208 °C.

`O=C(O)Cc1ccc2oc(-c3ccccc3)nc2c1` came in with a melting point of 175 °C.

Compound `Cc1cccc(-c2nnc(-c3ccccc3Cc3ccccc3)nn2)c1` yielded a melting point of 90 to 91 °C.

`Nc1nc(CN2CCCN(C(c3ccccc3)c3ccccc3)CC2)cs1` came in with a melting point of 152 to 156 °C.

`CCCCC1(CC(=O)N(CC)CC)C(=O)N(c2ccccc2)N(c2ccccc2)C1=O` displayed a melting point of 80.5 to 82 °C.

Compound `CNS(=O)(=O)Oc1ccc2c(c1)C(C)(C)C(O)O2` (stereo not given) displayed a melting point of 111 to 112 °C.

The compound `CCC(=O)c1ccc(COc2ccc(CO)c(CO)c2)s1` displayed a melting point of 123 °C.

`Cc1ccc(S(=O)(=O)Oc2ccc(C(c3ccc(OS(=O)(=O)c4ccc(C)cc4)c([N+](=O)[O-])c3)(C(F)(F)F)C(F)(F)F)cc2[N+](=O)[O-])cc1` returned a melting point of 206 to 208 °C.

As for `COc1cc(C(O)C(CO)[N+](=O)[O-])cc(OC)c1OC` (stereo not given), the melting point was in the range of 155 to 159 °C.

`COC(=O)c1ccc(O)cc1[N+](=O)[O-]` showed a melting point of 161 to 166 °C.

Consider `Cc1ccc(C)n1-c1cc2c(cc1C(F)(F)F)[nH]c(=O)c(=O)n2CC(=O)O`, for which the melting point is over 270 °C.

As for `CS(=O)(=O)c1ccc(-n2cnc(Cl)c2-c2ccccc2)cc1`, the melting point lay within 145 to 146 °C.

As to `CC(C)n1nc(-c2sc(C(=O)NCc3ccccn3)nc2-c2cccc(F)c2)ccc1=O`, the melting point lay in the range of 188 to 190 °C.

For `Nc1ccc(Cl)c(C(=O)NCC23CC4CC(CC(C4)C2)C3)c1`, the melting point came to 214 °C.

In turn, `CC(C)NC1=NS(=O)(=O)c2c(Cl)cc(Cl)cc2N1` returned a melting point of 291 to 293 °C.

`CC1=C(C(=O)OC(C)(C)C)C(c2ccccc2)C(C(=O)OC(C)(C)C)=C(C)N1` showed a melting point of 187 to 188 °C.

Regarding `CC1(C)OC(=O)C(Oc2ccc3ncccc3c2)=C1c1ccc(S(C)(=O)=O)cc1`, the melting point lay in the range of 171 to 172 °C.

On to `CCCCn1cc(C=C2SC(=S)N(CC(=O)O)C2=O)c2ccccc21`, for which the melting point was in the range of 280 to 285 °C.

In turn, `CCC(=O)N(C)c1cccc(-c2ccnc3c(C(=O)c4cccs4)cnn23)c1` displayed a melting point of 186 to 187 °C.

In the case of `O=C1c2ccccc2C(=O)N1CC(=O)N1c2ccccc2N(Cc2ccccc2)C(=O)[C@H]2CCCC[C@H]21` (relative stereo), the melting point is 241 to 242 °C.

`NS(=O)(=O)c1ccc(N2C(=O)CN(c3ccccc3)C2=O)cc1` displayed a melting point of 291 to 296 °C.

As for `COC(=Cc1ncn(C(c2ccccc2)(c2ccccc2)c2ccccc2)c1C)C(=O)c1cccc2ccccc12`, the melting point is 220 to 222 °C.

`Cn1ncnc1COc1nn2c(-c3ccccc3)nnc2cc1-c1ccco1` registered a melting point of 263 to 265 °C.

For `CC(C)(C)C(=O)OCCCCCCOc1ccc(Nc2ccccc2)cc1`, the melting point was 64 to 65 °C.

On to `C=C(COC(=O)Oc1ccc([N+](=O)[O-])cc1)C(=O)OCC`, for which the melting point is 42 to 43 °C.

Compound `c1cc(Nc2ccc(-n3cccc3)cn2)cc(-n2ccnc2)c1` displayed a melting point of 152 to 156 °C.

`CCCc1nn(-c2ccc(C(F)(F)F)cn2)cc1CCCCOc1cc(CCC(=O)O)n(C)n1`: the melting point is 122 to 123 °C.

Compound `CCC(=O)c1cnc2c(OCCO)cccc2c1Nc1ccc(F)cc1C` registered a melting point of 170 to 172 °C.
